Target: T1, SR Ca2+ pump (SERCA2a) (Mus musculus, UniProt O55143)
T1 construct: Crude cardiac microsomal vesicles containing fragmented sarcoplasmic reticulum (SR) were prepared; from tissue; host or cells: pooled hearts of C57 male mice (crude SR microsomal vesicles)
Assay: ATP-dependent Ca2+ uptake by murine cardiac SR vesicles (stopped-flow, arsenazo III)
Format: biochemical
Design: total Ca2+ uptake at equilibrium: unit not given here
Description: Crude cardiac microsomal vesicles containing fragmented sarcoplasmic reticulum (SR) were prepared as previously described for rat heart. Froehlich, J. P. et al., J. Mol. Cell. Cardiol., 10, 427-438 (1978). Pooled hearts from C57 male mice sacrificed by cervical dislocation were placed in 0.9% saline on ice, trimmed of atrial and connective tissue, and weighed. The finely minced heart muscle was homogenized in 10 mM NaHCO3 using a Polytron blender and the SR vesicles were separated from the myofilaments, mitochondria and nuclear membranes by differential centrifugation at 8,500 and 45,000×g. SR vesicles suspended in 0.25 M sucrose+10 mM MOPS, pH 7.0 were frozen and stored in liquid nitrogen prior to use. Twenty minutes prior to measuring Ca^2+ uptake, cardiac SR vesicles (1 mg/ml in storage buffer) were incubated with 250 μM AS delivered from a freshly-prepared 10 mM stock solution of AS (Na2N2O3) dissolved in 10 mM NaOH. […] Stopped-flow mixing was used to measure the initial time course of Ca^2+ accumulation by murine cardiac SR vesicles using the Ca^2+ indicator dye, arsenazo III. Membrane vesicles (0.4 mg/ml) suspended in a medium containing 100 mM KCl, 1 mM MgCl2, 50 μM arsenazo III, 5 mM sodium azide, and 20 mM MOPS, pH 7.4, were mixed with an equal volume of an identical medium containing 1 mM Na2ATP at 24° C. in a manually-operated stopped-flow apparatus (Applied Photophysics, Ltd.). The change in [Ca^2+] in the mixing cuvette was monitored using a single-beam UV-VIS spectrophotometer (AVIV, Model 14DS) with a monochromator setting of 650 nm. The total [Ca^2+] in the uptake medium was 0.5 μM, yielding a free [Ca^2+] in equilibrium with the Ca-arsenazo III complex of 0.2 μM (KA=3.3×10^4 M^−1). […] The time-dependent decrease in absorbance at 650 nm, reflecting Ca^2+ uptake by the SR vesicles, was monitored for 30-60 s at 0.1 s intervals. […] The signal change due to vesicle light scattering was evaluated from separate measurements conducted under identical conditions at the isosbestic wavelength of 693 nm. For evaluation of the time course of Ca^2+ uptake, a representative trace at 693 nm was subtracted from each of the individual traces at 650 nm acquired under identical conditions. The kinetic and thermodynamic parameters for Ca^2+ uptake were evaluated by fitting stopped-flow signals to one- and two-exponential decay functions plus a residual term using non-linear regression (Prism, Version 3.03). Residual plots of the difference between the fitted curve and data points were used to evaluate systematic errors in the fits and to calculate the sum-of-squares error used in selecting the best fit.
To test whether HNO directly enhances SR Ca^2+ uptake, its effects on SR membrane vesicles isolated from pooled C57/Bl6 mouse hearts were studied. Crude SR microsomal vesicles were incubated with 250 μM AS prior to measuring ATP-dependent Ca uptake by stopped-flow mixing at 24° C. Arsenazo III, a mid-range Ca indicator, was used to monitor Ca removal from the eravesicular compartment and buffer the free [Ca^2+] at a level producing half-saturation of the Ca^2+ pump (˜0.2 μM).

T1 sequence (O55143 1-998 isoform O55143-2): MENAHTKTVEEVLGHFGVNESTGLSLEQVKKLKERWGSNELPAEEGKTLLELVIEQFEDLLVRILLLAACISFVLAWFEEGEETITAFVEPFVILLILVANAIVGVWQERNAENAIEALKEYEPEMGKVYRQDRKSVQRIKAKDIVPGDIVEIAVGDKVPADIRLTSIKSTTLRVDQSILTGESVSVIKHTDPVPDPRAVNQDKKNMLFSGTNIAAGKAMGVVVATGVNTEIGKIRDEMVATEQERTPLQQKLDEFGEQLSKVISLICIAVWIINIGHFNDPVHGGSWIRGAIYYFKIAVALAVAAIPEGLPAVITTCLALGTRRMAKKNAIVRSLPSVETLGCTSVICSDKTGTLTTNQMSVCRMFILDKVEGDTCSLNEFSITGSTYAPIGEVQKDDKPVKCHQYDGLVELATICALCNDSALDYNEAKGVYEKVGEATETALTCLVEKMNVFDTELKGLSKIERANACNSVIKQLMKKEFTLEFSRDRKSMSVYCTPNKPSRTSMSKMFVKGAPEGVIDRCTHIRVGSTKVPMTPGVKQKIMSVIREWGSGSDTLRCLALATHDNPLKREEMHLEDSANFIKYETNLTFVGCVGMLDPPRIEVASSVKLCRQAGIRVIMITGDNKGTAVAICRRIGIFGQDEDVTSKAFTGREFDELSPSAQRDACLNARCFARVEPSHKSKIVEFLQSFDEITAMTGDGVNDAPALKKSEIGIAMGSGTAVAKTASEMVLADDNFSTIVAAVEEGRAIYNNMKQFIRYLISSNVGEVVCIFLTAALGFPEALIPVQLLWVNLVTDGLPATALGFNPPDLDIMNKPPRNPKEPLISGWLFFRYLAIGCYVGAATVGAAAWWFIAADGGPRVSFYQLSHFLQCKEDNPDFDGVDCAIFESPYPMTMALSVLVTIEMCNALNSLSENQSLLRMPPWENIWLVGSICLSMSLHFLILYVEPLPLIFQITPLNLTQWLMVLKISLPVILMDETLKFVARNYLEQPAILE

- increase of rate constant for Ca2+ uptake (250 μM AS, 0.2 μM free Ca2+, 24° C., n=6): 104%
- rate constant for Ca2+ uptake (250 μM AS, without AS 0.1563): 0.3204 s⁻¹
- rate of initial Ca2+ uptake (AS 250 μM): enhanced
- total Ca2+ uptake at equilibrium (after AS exposure, before 0.00257±0.0003, p=NS): 0.00202±0.000
- SR Ca2+ uptake activity after AS solution decayed completely to products (decayed AS test solution (e.g. nitrite)): No stimulation
Structure (SMILES): [Na+].[Na+].[O-][N+]([O-])=NO [AS, Angeli's salt]
